The EC50 is the concentration at which the effect is half-maximal. Read a high EC50 as weaker potency. Usually Emax stands for the size of the effect at its maximum, as opposed to the concentration needed. One may read the Ki as the dissociation constant of the complex between target and ligand, obtained from inhibition or displacement. A low value points to a stronger hold on the target.

These results are taken from patent US10519114B2, “Peptidomimetics and methods of using the same” (The Regents of the University of Michigan, priority 2016, dated 2019).

T3 sequence (P33535 whole entry): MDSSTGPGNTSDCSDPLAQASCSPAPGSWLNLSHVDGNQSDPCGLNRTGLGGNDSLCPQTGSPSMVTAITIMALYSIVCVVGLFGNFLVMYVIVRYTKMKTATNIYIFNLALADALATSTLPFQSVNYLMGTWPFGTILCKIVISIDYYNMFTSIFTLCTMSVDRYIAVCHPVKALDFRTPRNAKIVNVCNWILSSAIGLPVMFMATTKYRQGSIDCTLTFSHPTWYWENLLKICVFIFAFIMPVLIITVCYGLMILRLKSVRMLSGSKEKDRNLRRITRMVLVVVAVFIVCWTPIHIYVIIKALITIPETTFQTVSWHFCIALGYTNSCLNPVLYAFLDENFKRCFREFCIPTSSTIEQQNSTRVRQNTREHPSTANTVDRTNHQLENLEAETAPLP
T1 sequence (P41145 whole entry): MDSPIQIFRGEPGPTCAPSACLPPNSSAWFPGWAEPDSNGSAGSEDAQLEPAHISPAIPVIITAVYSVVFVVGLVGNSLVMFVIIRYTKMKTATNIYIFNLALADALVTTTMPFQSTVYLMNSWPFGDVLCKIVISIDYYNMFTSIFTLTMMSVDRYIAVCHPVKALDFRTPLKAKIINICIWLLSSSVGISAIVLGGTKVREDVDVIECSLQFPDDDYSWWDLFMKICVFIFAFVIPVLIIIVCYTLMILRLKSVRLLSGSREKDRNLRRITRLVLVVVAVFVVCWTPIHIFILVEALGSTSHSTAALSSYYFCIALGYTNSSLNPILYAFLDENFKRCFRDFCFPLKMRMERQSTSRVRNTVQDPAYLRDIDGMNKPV

The first test addresses T1, human κ (CHO-KOR) opioid receptor (Homo sapiens, UniProt P41145).
T1 construct: expressed in transfected cells
The experiment in a line: Stimulation of [35S]GTPγS binding, KOR. Format: biochemical. As to conditions: [35S]GTPγS binding, CHO-KOR membranes; mean ± standard error. A digest of the protocol: (§1)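 Membranes (10–20 μg protein) from C6 glioma cells expressing rat MOR or DOR, or CHO cells expressing human KOR, were incubated 1 h at room temperature with 0.1 nM [35S]GTPγS, 30 μM GDP and test peptides in Tris buffer pH 7.4. Bound label was filtered and counted; maximal stimulation, by nonlinear regression, was relative to 10 μM DAMGO (MOR), DPDPE (DOR) or U69,593 (KOR).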
`Cc1cc(O)cc(C)c1C[C@H](N)C(=O)N[C@@H]1CCNc2c1cc(Cc1ccccc1)cc2C(F)(F)F` [Compound 1129]: the EC50 turned out to be 600 nM.
On to `Cc1cc(O)cc(C)c1C[C@H](N)C(=O)N[C@@H]1CCNc2c(C(=O)O)cc(Cc3ccccc3)cc21` [Compound 1130], for which the “EC50 (nm) KOR” value is given as “dns”.
In turn, `CC(=O)N1CC[C@@H](NC(=O)[C@@H](N)Cc2c(C)cc(O)cc2C)c2cc(Oc3ccc(Cl)cc3)ccc21` [Compound 1026] registered an EC50 of 1820 nM.
Same read-out and setting: under `COc1cc(Cc2ccccc2)cc2c1N(C(C)=O)CC[C@H]2NC(=O)[C@@H](N)Cc1c(C)cc(O)cc1C` [Compound 1076] stands 1480 ± 639 nM.

Staying with this test, now noted: [35S]GTPγS maximal stimulation compared with 10 μM standard U-69,593.
`Cc1cc(O)cc(C)c1C[C@H](N)C(=O)N[C@@H]1CCNc2c1cc(Cc1ccccc1)cc2C(F)(F)F` [Compound 1129] had an Emax of 17%.
Consider `Cc1cc(O)cc(C)c1C[C@H](N)C(=O)N[C@@H]1CCNc2c(C(=O)O)cc(Cc3ccccc3)cc21` [Compound 1130], for which the “% stimulation KOR” value is “dns”.
As to `CC(=O)N1CC[C@@H](NC(=O)[C@@H](N)Cc2c(C)cc(O)cc2C)c2cc(Oc3ccc(Cl)cc3)ccc21` [Compound 1026], the Emax was found to be 47.3%.
On to `COc1cc(Cc2ccccc2)cc2c1N(C(C)=O)CC[C@H]2NC(=O)[C@@H](N)Cc1c(C)cc(O)cc1C` [Compound 1076], for which the Emax was 16.1 ± 5.54%.

A further test deals with T2, rat δ (C6-DOR) opioid receptor (Rattus norvegicus, UniProt P33533).
T2 construct: expressed in transfected cells
T2 sequence (P33533 whole entry): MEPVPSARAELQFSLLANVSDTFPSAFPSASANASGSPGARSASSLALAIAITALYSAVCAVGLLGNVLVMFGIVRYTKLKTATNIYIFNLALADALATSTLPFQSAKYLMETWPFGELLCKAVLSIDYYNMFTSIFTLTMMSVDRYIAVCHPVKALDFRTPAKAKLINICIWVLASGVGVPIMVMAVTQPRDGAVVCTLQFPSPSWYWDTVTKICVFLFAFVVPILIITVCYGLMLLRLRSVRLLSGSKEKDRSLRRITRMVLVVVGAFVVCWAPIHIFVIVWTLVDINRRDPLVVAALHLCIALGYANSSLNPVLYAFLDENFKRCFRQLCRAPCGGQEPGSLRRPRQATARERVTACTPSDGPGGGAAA
As to the kind of experiment: Radioligand binding assay, [3H]diprenorphine displacement, DOR. As to conditions: displacement of 0.2 nM [3H]diprenorphine, C6-DOR membranes; mean ± standard error. A digest of the protocol:
(§2)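 Ki values come from logistic fits of competition data, with filter-bound radioactivity counted after displacement of 0.2 nM [3H]diprenorphine. Membranes were from rat receptor-transfected C6 cells (MOR, DOR) or human KOR-expressing CHO cells. Incubation ran 1 h at room temperature in pH 7.4 Tris-HCl.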
`Cc1cc(O)cc(C)c1C[C@H](N)C(=O)N[C@@H]1CCNc2c1cc(Cc1ccccc1)cc2C(F)(F)F` [Compound 1129] returned a Ki of 3.7 nM. This lies in the single-digit nanomolar range.
Still for that read-out and setting: under `Cc1cc(O)cc(C)c1C[C@H](N)C(=O)N[C@@H]1CCNc2c(C(=O)O)cc(Cc3ccccc3)cc21` [Compound 1130] stands 2.3 nM.
Still for that read-out and setting: under `CC(=O)N1CC[C@@H](NC(=O)[C@@H](N)Cc2c(C)cc(O)cc2C)c2cc(Oc3ccc(Cl)cc3)ccc21` [Compound 1026] stands 3.1 ± 0.69 nM; under `COc1cc(Cc2ccccc2)cc2c1N(C(C)=O)CC[C@H]2NC(=O)[C@@H](N)Cc1c(C)cc(O)cc1C` [Compound 1076], 2.16 ± 1.15 nM.

A further test addresses T3, rat μ (C6-MOR) opioid receptor (Rattus norvegicus, UniProt P33535).
T3 construct: expressed in transfected cells
As to the kind of experiment: Stimulation of [35S]GTPγS binding, MOR. As to conditions: [35S]GTPγS binding, C6-MOR membranes; mean ± standard error. Format: biochemical. A digest of the protocol: as §1
On the technique in general: Binding of GTPγS marks nucleotide exchange on a G protein.
`Cc1cc(O)cc(C)c1C[C@H](N)C(=O)N[C@@H]1CCNc2c1cc(Cc1ccccc1)cc2C(F)(F)F` [Compound 1129] registered an EC50 of 1.8 nM.
Compound `Cc1cc(O)cc(C)c1C[C@H](N)C(=O)N[C@@H]1CCNc2c(C(=O)O)cc(Cc3ccccc3)cc21` [Compound 1130] displayed an EC50 of 4 nM.
Same read-out and setting: the same measure for `CC(=O)N1CC[C@@H](NC(=O)[C@@H](N)Cc2c(C)cc(O)cc2C)c2cc(Oc3ccc(Cl)cc3)ccc21` [Compound 1026]: 7.01 ± 1.49 nM.
The same measure, in the same setting: under `COc1cc(Cc2ccccc2)cc2c1N(C(C)=O)CC[C@H]2NC(=O)[C@@H](N)Cc1c(C)cc(O)cc1C` [Compound 1076] stands 0.78 ± 0.2 nM.

The same test, now with this note: [35S]GTPγS maximal stimulation compared with 10 μM standard DAMGO.
In turn, `Cc1cc(O)cc(C)c1C[C@H](N)C(=O)N[C@@H]1CCNc2c1cc(Cc1ccccc1)cc2C(F)(F)F` [Compound 1129] registered an Emax of 70%.
On the same count and under the same terms, the same measure for `Cc1cc(O)cc(C)c1C[C@H](N)C(=O)N[C@@H]1CCNc2c(C(=O)O)cc(Cc3ccccc3)cc21` [Compound 1130]: 60%; for `CC(=O)N1CC[C@@H](NC(=O)[C@@H](N)Cc2c(C)cc(O)cc2C)c2cc(Oc3ccc(Cl)cc3)ccc21` [Compound 1026]: 61.2 ± 6.93%.
Same read-out and setting: the same measure for `COc1cc(Cc2ccccc2)cc2c1N(C(C)=O)CC[C@H]2NC(=O)[C@@H](N)Cc1c(C)cc(O)cc1C` [Compound 1076]: 95.8 ± 10.2%.

A further test has as its target T3, rat μ (C6-MOR) opioid receptor. As to the kind of experiment: Radioligand binding assay, [3H]diprenorphine displacement, MOR. As to conditions: displacement of 0.2 nM [3H]diprenorphine, C6-MOR membranes; mean ± standard error. The essentials: as §2
Compound `Cc1cc(O)cc(C)c1C[C@H](N)C(=O)N[C@@H]1CCNc2c1cc(Cc1ccccc1)cc2C(F)(F)F` [Compound 1129] yielded a Ki of 0.3 nM.
As for `Cc1cc(O)cc(C)c1C[C@H](N)C(=O)N[C@@H]1CCNc2c(C(=O)O)cc(Cc3ccccc3)cc21` [Compound 1130], the Ki was 0.6 nM. Against the preceding compound, the Ki is about 2-fold higher.
On to `CC(=O)N1CC[C@@H](NC(=O)[C@@H](N)Cc2c(C)cc(O)cc2C)c2cc(Oc3ccc(Cl)cc3)ccc21` [Compound 1026], for which the affinity corresponds to a Ki of 0.1 ± 0.03 nM.
On the same count and under the same terms, the same measure for `COc1cc(Cc2ccccc2)cc2c1N(C(C)=O)CC[C@H]2NC(=O)[C@@H](N)Cc1c(C)cc(O)cc1C` [Compound 1076]: 0.14 ± 0.01 nM.

The subject of another test is C57BL/6 mice. The experiment in a line: Antinociception, warm water tail withdrawal assay.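 Further: fully efficacious means no withdrawal up to the 20 s cutoff.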 The test is classed as in vivo. As to conditions: mouse tail withdrawal, 50° C. water bath, cutoff 20 s, ip. As to the method: In Vivo Pharmacology. Animals. Adult male C57BL/6 mice weighing between 20 and 30 g at 8-16 weeks old were used for the current experiments (obtained from Jackson Laboratories (Bar Harbor, Me.), Harlan (Indianapolis, Ind.), or bred in-house). Mice were group-housed and had free access to food and water at all times. Experiments were conducted in the housing room, which was maintained on a 12 h light/dark cycle (with lights on at 0700). Each mouse was used only once and experiments were conducted between 11 a.m. and 4 p.m. Studies were performed in accordance with the University of Michigan Committee on the Use and Care of Animals and the Guide for the Care and Use of Laboratory Animals (National Research Council, 2011 publication).
Antinociception. The antinociceptive effects of the compounds disclosed herein and morphine can be evaluated in the warm water tail withdrawal assay using a cumulative dosing procedure. To determine tail withdrawal latencies, each mouse was placed briefly into a plastic, cylindrical restrainer and 2-3 cm of the tail tip was placed into a water bath maintained at 50° C. The latency to withdraw the tail was recorded with a maximum cutoff time of 20 s. […] Each animal received an injection of saline (intraperitoneal, ip) and then 30 min later, the baseline withdrawal latencies were recorded and ranged between 3 and 6 s. Following baseline determinations, three increasing doses (1, 2.2, and 6.8 mg/kg) of 1(4R) were given at 30 min intervals to provide final doses of 1, 3.2, and 10 mg/kg. Thirty minutes after each injection, the tail withdrawal latency was measured as described above. To confirm that 1(4R) was acting at opioid receptors, the cumulative dose response was repeated over the doses 3.2, 10, and 32 mg/kg following a 30 min pretreatment with 1 mg/kg naltrexone (ip). To determine the time-course of antinociceptive action the tail-withdrawal test was performed at varying times following administration of morphine (10 mg/kg, ip) or 1(4R) (10 mg/kg, ip).
`Cc1cc(O)cc(C)c1C[C@H](N)C(=O)N[C@@H]1CCNc2c1cc(Cc1ccccc1)cc2C(F)(F)F` [Compound 1129]: the Antinociceptive activity result is recorded as “Inactive”.
On the same count and under the same terms, the same measure for `Cc1cc(O)cc(C)c1C[C@H](N)C(=O)N[C@@H]1CCNc2c(C(=O)O)cc(Cc3ccccc3)cc21` [Compound 1130]: “Inactive”.

A further test deals with T1, human κ (CHO-KOR) opioid receptor. The experiment in a line: Radioligand binding assay, [3H]diprenorphine displacement, KOR. As to conditions: displacement of 0.2 nM [3H]diprenorphine, CHO-KOR membranes; mean ± standard error. A digest of the protocol: as §2
For the compound `Cc1cc(O)cc(C)c1C[C@H](N)C(=O)N[C@@H]1CCNc2c1cc(Cc1ccccc1)cc2C(F)(F)F` [Compound 1129], the Ki came to 21 nM.
Take `Cc1cc(O)cc(C)c1C[C@H](N)C(=O)N[C@@H]1CCNc2c(C(=O)O)cc(Cc3ccccc3)cc21` [Compound 1130]: affinity was put at a Ki of 700 nM. This Ki lies about 33-fold higher than the previous one.
On the same count and under the same terms, under `CC(=O)N1CC[C@@H](NC(=O)[C@@H](N)Cc2c(C)cc(O)cc2C)c2cc(Oc3ccc(Cl)cc3)ccc21` [Compound 1026] stands 45.5 ± 6.67 nM; under `COc1cc(Cc2ccccc2)cc2c1N(C(C)=O)CC[C@H]2NC(=O)[C@@H](N)Cc1c(C)cc(O)cc1C` [Compound 1076], 44.8 ± 16.9 nM.

In a further test the target is T2, rat δ (C6-DOR) opioid receptor. As to the kind of experiment: Stimulation of [35S]GTPγS binding, DOR. The test is classed as biochemical. As to conditions: [35S]GTPγS binding, C6-DOR membranes; mean ± standard error. A digest of the protocol:
as §1
With `Cc1cc(O)cc(C)c1C[C@H](N)C(=O)N[C@@H]1CCNc2c1cc(Cc1ccccc1)cc2C(F)(F)F` [Compound 1129], the midpoint of the response, the EC50, lay at 50 nM. This lies in the double-digit nanomolar range.
Consider `Cc1cc(O)cc(C)c1C[C@H](N)C(=O)N[C@@H]1CCNc2c(C(=O)O)cc(Cc3ccccc3)cc21` [Compound 1130], for which the “EC50 (nm) DOR” value is recorded as “dns”.
For `COc1cc(Cc2ccccc2)cc2c1N(C(C)=O)CC[C@H]2NC(=O)[C@@H](N)Cc1c(C)cc(O)cc1C` [Compound 1076], the EC50 was 4.62 ± 1.9 nM.

The test is the same for the next values; noted with them: [35S]GTPγS maximal stimulation compared with 10 μM standard DPDPE.
The compound `Cc1cc(O)cc(C)c1C[C@H](N)C(=O)N[C@@H]1CCNc2c1cc(Cc1ccccc1)cc2C(F)(F)F` [Compound 1129] had an Emax of 42%.
Regarding `Cc1cc(O)cc(C)c1C[C@H](N)C(=O)N[C@@H]1CCNc2c(C(=O)O)cc(Cc3ccccc3)cc21` [Compound 1130], the “% stimulation DOR” value is reported as “dns”.
For `CC(=O)N1CC[C@@H](NC(=O)[C@@H](N)Cc2c(C)cc(O)cc2C)c2cc(Oc3ccc(Cl)cc3)ccc21` [Compound 1026], the Emax is 0%.
In turn, `COc1cc(Cc2ccccc2)cc2c1N(C(C)=O)CC[C@H]2NC(=O)[C@@H](N)Cc1c(C)cc(O)cc1C` [Compound 1076] had an Emax of 44.6 ± 3.75%.
